In ChEMBL document CHEMBL3217548, “Biological activity and DNA binding studies of 2-substituted benzimidazo[1,2-a]quinolines bearing different amino side chains” (Medchemcomm, 2013):
The source made the active and inactive calls. The rule behind the calls is not given here.

Key:
Calf thymus DNA [1] = assay: Binding affinity to calf thymus DNA assessed as bathochromic shift at 20 uM by UV/visible spectrophotometry; type: nucleic-acid assay; settings: Bos taurus
Calf thymus DNA [2] = assay: Binding affinity to calf thymus DNA assessed as hypochromic shift at 20 uM by UV/visible spectrophotometry; type: nucleic-acid assay; settings: Bos taurus
[3] = Binding affinity to DNA (unknown origin) at 1 to 5 uM after 15 mins by DNA footprinting assay
Homo sapiens = species on record: Homo sapiens; assay: Inhibition of human DNA topoisomerase 2 assessed as inhibition of DNA cleavage
[4] = target: T1, DNA topoisomerase 1 (Homo sapiens) (UniProt P11387); assay: Inhibition of human DNA topoisomerase 1 assessed as inhibition of DNA cleavage
T1 sequence (whole entry): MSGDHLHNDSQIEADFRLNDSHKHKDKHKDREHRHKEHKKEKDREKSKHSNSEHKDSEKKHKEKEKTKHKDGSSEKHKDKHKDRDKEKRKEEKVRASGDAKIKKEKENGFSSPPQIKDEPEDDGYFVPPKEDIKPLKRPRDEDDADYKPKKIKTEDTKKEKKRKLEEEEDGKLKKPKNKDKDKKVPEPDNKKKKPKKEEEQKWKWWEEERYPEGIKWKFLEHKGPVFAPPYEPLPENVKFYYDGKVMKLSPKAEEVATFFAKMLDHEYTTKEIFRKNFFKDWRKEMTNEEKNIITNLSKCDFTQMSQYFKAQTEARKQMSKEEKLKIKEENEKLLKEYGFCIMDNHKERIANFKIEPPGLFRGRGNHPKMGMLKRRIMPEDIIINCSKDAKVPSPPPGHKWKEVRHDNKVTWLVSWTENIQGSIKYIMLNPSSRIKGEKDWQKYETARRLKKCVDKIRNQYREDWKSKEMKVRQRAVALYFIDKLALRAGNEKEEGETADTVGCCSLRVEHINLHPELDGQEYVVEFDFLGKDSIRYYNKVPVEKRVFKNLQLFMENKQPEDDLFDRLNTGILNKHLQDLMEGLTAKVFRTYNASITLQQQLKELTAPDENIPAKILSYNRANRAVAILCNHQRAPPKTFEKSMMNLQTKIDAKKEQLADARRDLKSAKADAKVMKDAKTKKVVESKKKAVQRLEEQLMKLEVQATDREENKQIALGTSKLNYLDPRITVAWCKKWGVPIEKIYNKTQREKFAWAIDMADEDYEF

Escherichia coli [5] = assay: Binding affinity to Escherichia coli pUC19 plasmid assessed as nicked DNA at 0.1 to 5 uM by ethidium bromide staining-based agarose gel electrophoresis
Escherichia coli [6] = assay: Binding affinity to Escherichia coli pUC19 plasmid assessed as induction of topoisomerase1-mediated DNA relaxation at 2 uM incubated for 45 mins prior to topoisomerase1 addition by agarose gel electrophoresis
Calf thymus DNA [7] = assay: Binding affinity to calf thymus DNA assessed as DNA intercalation at 1 to 50 uM by circular dichroism analysis; type: nucleic-acid assay; settings: Bos taurus
Calf thymus DNA [8] = assay: Binding affinity to calf thymus DNA assessed as change in melting temperature at 0.5 drug/DNA ratio by spectrophotometry; type: nucleic-acid assay; settings: Bos taurus
[9] = Drug uptake in human H460 cell perinuclear region at 10 uM after 2 hrs by fluorescence microscopy; type: ADME, cell-based; settings: h460, 2 h
[10] = Drug uptake in human H460 cell cytoplasm at 10 uM after 2 hrs by fluorescence microscopy; type: ADME, cell-based; settings: h460, 2 h
HCT-116 [11] = assay: Cell cycle arrest in human HCT116 cells assessed as accumulation at G2/M phase at 5 uM after 48 hrs by propidium iodide staining-based FACS analysis (reference value: 31 +/- 0.1 %); type: functional
HCT-116 [12] = assay: Cell cycle arrest in human HCT116 cells assessed as accumulation at G2/M phase at 0.5 uM after 48 hrs by propidium iodide staining-based FACS analysis (reference value: 31 +/- 0.1 %); type: functional
HCT-116 [13] = assay: Cell cycle arrest in human HCT116 cells assessed as accumulation at G2/M phase at 5 uM after 24 hrs by propidium iodide staining-based FACS analysis (reference value: 28 +/- 1 %); type: functional
HCT-116 [14] = assay: Cell cycle arrest in human HCT116 cells assessed as accumulation at G2/M phase at 0.5 uM after 24 hrs by propidium iodide staining-based FACS analysis (reference value: 28 +/- 1 %); type: functional
HCT-116 [15] = assay: Cell cycle arrest in human HCT116 cells assessed as accumulation at S phase at 5 uM after 48 hrs by propidium iodide staining-based FACS analysis (reference value: 32 +/- 1 %); type: functional
HCT-116 [16] = assay: Cell cycle arrest in human HCT116 cells assessed as accumulation at S phase at 0.5 uM after 48 hrs by propidium iodide staining-based FACS analysis (reference value: 32 +/- 1 %); type: functional
HCT-116 [17] = assay: Cell cycle arrest in human HCT116 cells assessed as accumulation at S phase at 5 uM after 24 hrs by propidium iodide staining-based FACS analysis (reference value: 39 +/- 0.2 %); type: functional
HCT-116 [18] = assay: Cell cycle arrest in human HCT116 cells assessed as accumulation at S phase at 0.5 uM after 24 hrs by propidium iodide staining-based FACS analysis (reference value: 39 +/- 0.2 %); type: functional
HCT-116 [19] = assay: Cell cycle arrest in human HCT116 cells assessed as accumulation at G1 phase at 5 uM after 48 hrs by propidium iodide staining-based FACS analysis (reference value: 37 +/- 2 %); type: functional
HCT-116 [20] = assay: Cell cycle arrest in human HCT116 cells assessed as accumulation at G1 phase at 0.5 uM after 48 hrs by propidium iodide staining-based FACS analysis (reference value: 37 +/- 2 %); type: functional
HCT-116 [21] = assay: Cell cycle arrest in human HCT116 cells assessed as accumulation at G1 phase at 5 uM after 24 hrs by propidium iodide staining-based FACS analysis (reference value: 33 +/- 1 %); type: functional
HCT-116 [22] = assay: Cell cycle arrest in human HCT116 cells assessed as accumulation at G1 phase at 0.5 uM after 24 hrs by propidium iodide staining-based FACS analysis (reference value: 33 +/- 1 %); type: functional
HCT-116 [23] = assay: Cell cycle arrest in human HCT116 cells assessed as accumulation at subG0/G1 phase at 5 uM after 48 hrs by propidium iodide staining-based FACS analysis (reference value: 4 +/- 1 %); type: functional
HCT-116 [24] = assay: Cell cycle arrest in human HCT116 cells assessed as accumulation at subG0/G1 phase at 0.5 uM after 48 hrs by propidium iodide staining-based FACS analysis (reference value: 4 +/- 1 %); type: functional
HCT-116 [25] = assay: Cell cycle arrest in human HCT116 cells assessed as accumulation at subG0/G1 phase at 5 uM after 24 hrs by propidium iodide staining-based FACS analysis (reference value: 4 +/- 1 %); type: functional
HCT-116 [26] = assay: Cell cycle arrest in human HCT116 cells assessed as accumulation at subG0/G1 phase at 0.5 uM after 24 hrs by propidium iodide staining-based FACS analysis (reference value: 4 +/- 1 %); type: functional
MCF7 = assay: Cytotoxicity against human MCF7 cells after 72 hrs by MTT assay; type: functional, cell-based; settings: MCF7, 72 h
[27] = Cytotoxicity against human H460 cells after 72 hrs by MTT assay; type: functional, cell-based; settings: NCI-H460, 72 h
HCT-116 [28] = assay: Cytotoxicity against human HCT116 cells after 72 hrs by MTT assay; type: functional, cell-based; settings: HCT-116, 72 h
DNA = assay: Induction of DNA damage in plasmid DNA in E. coli S30 cell-free system assessed as inhibition of EGFP translation at 50 uM after 1 hr by fluorescence assay

- Activity (Calf thymus DNA [1]): Active
- Activity (Calf thymus DNA [2]): Active
- Activity [3]: Active
- Activity (Homo sapiens): inactive
- Activity [4]: inactive
- Activity (Escherichia coli [5]): Active
- Activity (Escherichia coli [6]): Active
- Activity (Calf thymus DNA [7]): Active
- ΔTm (Calf thymus DNA [8]): 15.4 °C
- Drug uptake [9]: Active
- Drug uptake [10]: Active
SMILES: C[N+]1(C)CCN(c2ccc3cc(C#N)c4nc5ccccc5n4c3c2)CC1.[I-]
- Activity (HCT-116 [11]): 28%
- Activity (HCT-116 [12]): 31%
- Activity (HCT-116 [13]): 29%
- Activity (HCT-116 [14]): 32%
- Activity (HCT-116 [15]): 29%
- Activity (HCT-116 [16]): 32%
- Activity (HCT-116 [17]): 33%
- Activity (HCT-116 [18]): 36%
- Activity (HCT-116 [19]): 43%
- Activity (HCT-116 [20]): 37%
- Activity (HCT-116 [21]): 38%
- Activity (HCT-116 [22]): 32%
- Activity (HCT-116 [23]): 5%
- Activity (HCT-116 [24]): 6%
- Activity (HCT-116 [25]): 7%
- Activity (HCT-116 [26]): 6%
- IC50 (MCF7): 2.4 µM
- IC50 [27]: 2 µM
- IC50 (HCT-116 [28]): 0.6 µM
- inhibition at 50 µM (DNA): 45%
